Laboratory results published in patent US10821079B2, “PKC activators and combinations thereof” (Cognitive Research Enterprises, Inc., priority 2011, dated 2020).

Assays:
PKC-ε [1] = test: PKC-ε mRNA by RT-PCR in primary rat hippocampal neurons; type: cell-based; conditions: controls and ASPD-treated cells
Method: RNA was isolated from the cells using Trizol reagent (Invitrogen, USA) following the manufacturer's protocol. Briefly, 5 μg of total RNA was reverse transcribed using oligo (dT) and Superscript III (Invitrogen, USA) at 50° C. for 1 hr. Two μl of the cDNA product was amplified using primers for PKC-ε (Forward Primer—[…], Reverse primer—[…]), and β-tubulin (Forward Primer—[…], Reverse primer—[…]) (Origene, Rockville, Md.) for 25 cycles following standard PCR protocols and 55° C. annealing temperature. The PCR amplicons were analyzed in an E-Gel (Invitrogen, USA). The gel image was documented using a Fuji Image gel scanner (FLA-9000, Fuji Film) and densitometric quantification was performed using the IMAL software (Blanchette Rockefeller Neurosciences Institute, Morgantown, W. Va.). Data were represented as normalized ratio of PKC-ε OD (Optical Density) against β-tubulin OD for three independent experiments.
Primary neurons were treated with ASPD and/or DCPLA-ME. PKC-ε mRNA was quantified by RT-PCR as described above. RNA prepared from control and treated cultured primary rat hippocampal neurons were isolated and reverse transcribed. Individual cDNA was amplified for PKC-ε and β-actin. PKC-ε expression was normalized to β-actin.

synaptophysin = test: Synaptophysin Western Blot in primary rat hippocampal neurons; type: cell-based; conditions: ASPD
Method: (§1) Cells were harvested in homogenizing buffer containing 10 mM Tris-Cl (pH 7.4), 1 mM PMSF (phenylmethylsulfonyl fluoride), 1 mM EGTA, 1 mM EDTA, 50 mM NaF, and 20 μM leupeptin and were lysed by sonication. The homogenate was centrifuged at 100,000×g for 15 min at 4° C. to obtain the cytosolic fraction (supernatant) and membrane (pellet). The pellet was resuspended in the homogenizing buffer by sonication. Protein concentration was measured using the Coomassie Plus (Bradford) Protein Assay kit (Pierce, USA). Following quantification, 20 μg of protein from each sample was subjected to SDS-PAGE analysis in 4-20% gradient Tris-Glycine gel (Invitrogen, USA). The separated protein was then transferred to nitrocellulose membrane. The membrane was blocked with BSA at room temperature for 15 min and was incubated with primary antibody over night at 4° C. After the incubation, it was washed three times with TBS-T (Tris Buffered saline-Tween 20) and further incubated with alkaline phosphatase conjugated secondary antibody (Jackson Immunoresearch Laboratories, USA) at 1:10,000 dilution for 45 min. The membrane was finally washed three times with TBS-T and developed using the 1-step NBT-BCIP substrate (Pierce, USA). Western Blot was imaged in the ImageQuant RT-ECL (GE Life Sciences, Piscataway, N.J.) and densitometric quantification was performed using the IMAL software (Blanchette Rockefeller Neurosciences Institute, Morgantown, W. Va.). For translocation assays, PKC activation was represented as the percentage of total protein in the membrane (membrane/cytosol+membrane).

[2] = tested on: rat primary hippocampal neurons; test: Neurotoxic effect of Aβ1-42 assemblies, MTT viability; type: cell-based; conditions: 20 hr
Method: (§2) Viability of cells was measured by MTT assay. MTT (3-(4,5-Dimethylthiazol-2-yl)-2,5-diphenyltetrazolium bromide) is a tetrazolium salt that is cleaved to formazan by the succinate dehydrogenase, which is only active in viable cells. After solubilization of the formazan, the amount of dye can be quantified with a microplate reader at 570 nm along with a reference of 630 nm. For MTT assay, 5×104 primary rat hippocampal neurons from 18-day-old embryonic Sprague-Dawley rat brains were plated on each well of 24-well plates coated with poly-D-lysine. After treatment, the cells were washed with 1×PBS and were incubated with 200 μl of 1 mg/ml MTT solution (Sigma, USA) at 37° C. for 2 hr. Then the MTT-solution was removed and the cells were lysed with 200 μl isopropanol containing 0.04 M HCl and 160 mM NaOH for 10 min. Finally, the reading was done at 570 nm and 630 nm. All the samples were done in triplicates and the data was represented as the percentage of control.
To assess the neurotoxic effect of different sized oligomers, rat primary hippocampal neurons were treated with variable concentrations of these Aβ1-42 species for 20 hr. Viability of the treated cells was compared to untreated cells using the MTT assay.

PKC-ε [3] = test: PKC-ε translocation to membrane in SH-SY5Y cells (Western blot); type: cell-based, human; conditions: ASPD; ADDL at 20-fold higher concentrations
Method: as §1
Equal amounts of proteins were loaded in each lane (20 μg) for both the cytosol and membrane fractions. Activation of PKC was calculated as the percentage of total PKC in the membrane (membrane/cytosol+membrane).

PKC-ε [4] = test: PKC-ε level in primary neurons (immunofluorescence, Western Blot); type: cell-based, rat; conditions: primary neurons, 20 hr ASPD
Method: as §1
Cells were grown in two chambered slides (Nunc, USA) at low density. For immunofluorescence staining, the cells were washed with PBS (pH 7.4) and fixed with 4% paraformaldehyde for 4 min. Following fixation, the cells were blocked and permeabilized with 5% serum and 0.3% Triton X 100 in 1×PBS for 30 min. […] Six individual fields at 63× oil lens magnification were analyzed for the mean fluorescence intensity (MFI) in each channel. […]

[5] = tested on: rat hippocampal primary neurons; test: Synaptic marker immunofluorescence in rat hippocampal primary neurons; type: cell-based
Method: Cells were grown in two chambered slides (Nunc, USA) at low density. For immunofluorescence staining, the cells were washed with PBS (pH 7.4) and fixed with 4% paraformaldehyde for 4 min. Following fixation, the cells were blocked and permeabilized with 5% serum and 0.3% Triton X 100 in 1×PBS for 30 min. The cells were washed three times with 1×PBS and incubated with primary antibodies for 1 hr at 1:100 dilution. The incubation slides were then washed again three times in 1×PBS and were incubated with the FITC anti-rabbit IgG and Rhodamine anti-mouse IgG for 1 hr at 1:400 dilution. The cells were further washed and treated with DAPI (4′,6-diamidino-2′-phenylindole, dihydrochloride) (Thermo Scientific, USA) to stain the nucleus. Finally, the slides were washed and mounted in Pro Long Gold antifade mounting solution (Invitrogen, USA) and were viewed under the LSM 710 Meta confocal microscope (Zeiss) at 350 nm, 490 nm, and 540 nm excitation and 470 nm, 525 nm, and 625 nm emission for DAPI, FITC, and Rhodamine respectively. Six individual fields at 63× oil lens magnification were analyzed for the mean fluorescence intensity (MFI) in each channel. The co-localization correlation generated by the ZEN software (Zeiss).
To estimate the synaptic damage caused by the ASPDs on primary hippocampal neurons, the expression of synaptophysin (a presynaptic marker) and PSD-95 (a postsynaptic marker) was measured by immunofluorescence staining. […] Following a 20 hr incubation period, the cells were stained for nucleus, PSD-95, and synaptophysin. Expression levels were calculated as the change of percentage in mean fluorescence intensity compared to untreated cells.
Primary neurons, treated and untreated, were immunostained for MAP-2, synaptophysin, and PSD-95 to determine the synaptic integrity. […] Following a 20 hr incubation period, the cells were stained for MAP-2, PSD-95, and synaptophysin as described above.

[6] = tested on: differentiated human SH-SY5Y cells; test: Neuroprotection against ASPD, MTT, SH-SY5Y cells; type: cell-based; conditions: ASPD alone
[7] = tested on: primary rat hippocampal neurons; test: Neuroprotection against ASPD induced toxicity, MTT, primary neurons; type: cell-based
Method: as §2
All studies used 50 nM ASPDs. The viability of the cells were measured by the MTT assay.

[8] = 50 nM ASPD alone (ASPD) or with 100 nM DCPLA-ME, 20 hr
[9] = 50 nM ASPD alone (ASPD) or with RA and Bryostatin-1, 20 hr

ASPD: amylospheroids, Aβ1-42 assemblies retained by a 100 kDa filter
PKC-ε transcript levels (in words) (PKC-ε [1]): did not change PKC-ε mRNA significantly
decrease of synaptophysin expression by Western Blot (synaptophysin): 26%
synaptophysin expression by Western Blot (synaptophysin): 73.30%±3.319
Viability of primary neuron (Mean ± SEM) ([2]; 0.5 nM): 95.12 ± 0.733 % of control
Viability of primary neuron (Mean ± SEM) ([2]; 1 nM): 89.64 ± 5.99 % of control
Viability of primary neuron (Mean ± SEM) ([2]; 2 nM): 87.75 ± 0.94 % of control
Viability of primary neuron (Mean ± SEM) ([2]; 5 nM): 70.95 ± 1.89 % of control
Viability of primary neuron (Mean ± SEM) ([2]; 10 nM): 68.68 ± 0.84 % of control
Viability of primary neuron (Mean ± SEM) ([2]; 50 nM): 57.55 ± 3.35 % of control
viability of neurons ([2]; 50 nM): 57.1±4.9%
Viability of primary neuron (Mean ± SEM) ([2]; 500 nM): 52.94 ± 3.75 % of control
PKC-ε membrane translocation (PKC-ε [3]): 69.98±3.27%
reduction of PKC-ε translocation (PKC-ε [3]): 46%
PKC-ε immunofluorescence level compared to control (PKC-ε [4]): 60.81±5.85%
MAP-2 expression (mean fluorescence intensity) [5, 8]: 40.7±6.2%
PSD-95 expression (mean fluorescence intensity) [5, 8]: 67.63±7.24%
synaptophysin expression (mean fluorescence intensity) [5, 8]: 63.3±3.8%
Mean fluorescence intensity of PSD-95 [5, 9]: 8.16±1.21
Mean fluorescence intensity of synaptophysin [5, 9]: 9.74±2.5
decrease of PSD-95 expression ([5]; 50 nM ASPD, 20 hr): 42%
decrease in synaptophysin intensity ([5]; 50 nM ASPDs, 1 μM ADDLs, 20 hr): 40%
synaptophysin intensity compared to the control ([5]; 50 nM ASPDs, 1 μM ADDLs, 20 hr): 62.45±6.74%
viability compared to the untreated cells [6]: 77.15±0.49%
viability of primary neurons ([7]; 50 nM ASPD alone, 20 hr): 57.6±1.6%
viability (Example 25) ([7]; 50 nM ASPDs alone (ASPD) or with the treatment named, 24 hr): 57.61%±1.59
